Source: patent US20230233569A1 (Revolution Medicines, Inc., priority 2020, published 2023)

How the values were obtained:
[1] = tested on: 4EBP1 (Thr37/46) phosphorylation (mTORC1) in MDA-MB-468 cells; test: Cell based AlphaLISA assay, mTOR kinase cellular assay: inhibition of p-4E-BP1 (T37/46) in MDA-MB-468 cells; conditions: Homo sapiens, read-out: pIC50 for Inhibition of mTORC1 and mTORC2 Substarte Phosphorylation p-4E-BP1-(T37/46) (converted)
Procedure: (§1) Cell Based AlphaLISA Assays for Determining IC50 For Inhibition of P-Akt (S473), P-4E-BP1 (T37/46), and P-P70S6K (T389) in MDA-MB-468 Cells
(§2) mTOR Kinase Cellular Assay
(§3) To measure functional activity of mTORC1 and mTORC2 in cells the phosphorylation of 4EBP1 (Thr37/46) and P70S6K (Thr389), and AKT1/2/3 (Ser473) was monitored using AlphaLisa SureFire Ultra Kits (Perkin Elmer). MDA-MB-468 cells (ATCC® HTB-132) were cultured in 96-well tissue culture plates and treated with compounds in the disclosure at concentrations varying from 0.017-1,000 nM for two to four hours at 37° C. Incubations were terminated by removal of the assay buffer and addition of lysis buffer provided with the assay kit. Samples were processed according to the manufacturer's instructions. The Alpha signal from the respective phosphoproteins was measured in duplicate using a microplate reader (Envision, Perkin-Elmer or Spectramax M5, Molecular Devices). Inhibitor concentration response curves were analyzed using normalized IC50 regression curve fitting with control based normalization.

[2] = tested on: AKT1/2/3 (Ser473) phosphorylation (mTORC2) in MDA-MB-468 cells; test: Cell based AlphaLISA assay, mTOR kinase cellular assay: inhibition of p-Akt (S473) in MDA-MB-468 cells; conditions: Homo sapiens, read-out: pIC50 for Inhibition of mTORC1 and mTORC2 Substarte Phosphorylation p-AKT1/2/3-(S473) (converted)
Procedure: as §1, §2, §3

Row | Compound | IC50 [1] [nM] | IC50 [2] [nM]
1 | CO[C@H]1C[C@@H]2CC[C@@H](C)[C@@](O)(O2)C(=O)C(=O)N2CCCC[C@H]2C(=O)O[C@H]([C@H](C)C[C@@H]2CC[C@@H](OC(=O)NCc3cnc(N4CCN(CCOCCN5CCN(c6ncc(C(=O)N7CCc8cc(Cn9nc(-c%10ccc%11oc(N)nc%11c%10)c%10c(N)ncnc%109)ccc8C7)cn6)CC5)CC4)nc3)[C@H](OC)C2)C[C@@H](OC)[C@H](C)/C=C(\C)[C@@H](O)[C@@H](OC)C(=O)[C@H](C)C[C@H](C)/C=C/C=C/C=C/1C [Example 125] | ≤ 3.16 | –
2 | CO[C@H]1C[C@@H]2CC[C@@H](C)[C@@](O)(O2)C(=O)C(=O)N2CCCC[C@H]2C(=O)O[C@H]([C@H](C)C[C@@H]2CC[C@@H](OC(=O)N3CCc4nc(N5CCN(CCOCCN6CCN(c7ncc(C(=O)N8CCc9cc(Cn%10nc(-c%11ccc%12oc(N)nc%12c%11)c%11c(N)ncnc%11%10)ccc9C8)cn7)CC6)CC5)ncc4C3)[C@H](OC)C2)C[C@@H](OC)[C@H](C)/C=C(\C)[C@@H](O)[C@@H](OC)C(=O)[C@H](C)C[C@H](C)/C=C/C=C/C=C/1C [Example 126] | 3.16 to 31.6 | –
3 | CO[C@H]1C[C@@H]2CC[C@@H](C)[C@@](O)(O2)C(=O)C(=O)N2CCCC[C@H]2C(=O)O[C@H]([C@H](C)C[C@@H]2CC[C@@H](OC(=O)NCc3cnc(N4CCN(C(=O)CCOCCN5CCN(c6ncc(C(=O)NCCS(=O)(=O)c7ccc(C(=O)N8CCOc9ccc(-c%10ccc(N)nc%10)cc9C8)c(C)c7)cn6)CC5)CC4)nc3)[C@H](OC)C2)CC(=O)[C@H](C)/C=C(\C)[C@@H](O)[C@@H](OC)C(=O)[C@H](C)C[C@H](C)/C=C/C=C/C=C/1C [Example 121] | – | > 1000
4 | CO[C@H]1C[C@@H]2CC[C@@H](C)[C@@](O)(O2)C(=O)C(=O)N2CCCC[C@H]2C(=O)O[C@H]([C@H](C)C[C@@H]2CC[C@@H](OC(=O)NCc3cnc(N4CCN(C(=O)CCOCCN5CCN(c6ncc(C(=O)NCCS(=O)(=O)c7ccc(C(=O)N8CCOc9ccc(-c%10ccc(N)nc%10)cc9C8)c(C)c7F)cn6)CC5)CC4)nc3)[C@H](OC)C2)C[C@@H](OC)[C@H](C)/C=C(\C)[C@@H](O)[C@@H](OC)C(=O)[C@H](C)C[C@H](C)/C=C/C=C/C=C/1C [Example 120] | – | 3.16 to 31.6
5 | CO[C@H]1C[C@@H]2CC[C@@H](C)[C@@](O)(O2)C(=O)C(=O)N2CCCC[C@H]2C(=O)O[C@H]([C@H](C)C[C@@H]2CC[C@@H](OC(=O)NCc3cnc(N4CCN(C(=O)CCOCCN5CCN(C(=O)CCC(=O)N6CCc7cc(Cn8nc(-c9ccc%10oc(N)nc%10c9)c9c(N)ncnc98)ccc7C6)CC5)CC4)nc3)[C@H](OC)C2)C[C@@H](OC)[C@H](C)/C=C(\C)[C@@H](O)[C@@H](OC)C(=O)[C@H](C)C[C@H](C)/C=C/C=C/C=C/1C [Example 130] | – | > 1000
6 | CO[C@H]1C[C@@H]2CC[C@@H](C)[C@@](O)(O2)C(=O)C(=O)N2CCCC[C@H]2C(=O)O[C@H]([C@H](C)C[C@@H]2CC[C@@H](OC(=O)NCc3cnc(N4CCN(C(=O)CCOCCN5CCN(c6ncc(C(=O)N7CCc8cc(Cn9nc(-c%10ccc%11oc(N)nc%11c%10)c%10c(N)ncnc%109)ccc8C7)cn6)CC5)CC4)nc3)[C@H](OC)C2)CC[C@H](C)/C=C(\C)[C@@H](O)[C@@H](OC)C(=O)[C@H](C)C[C@H](C)/C=C/C=C/C=C/1C [Example 115] | – | ≤ 3.16
7 | CO[C@H]1C[C@@H]2CC[C@@H](C)[C@@](O)(O2)C(=O)C(=O)N2CCCC[C@H]2C(=O)O[C@H]([C@H](C)C[C@@H]2CC[C@@H](OC(=O)NCCOCCOCCOCCOCCOCCOCCOCCOCC(=O)N3CCc4cc(Cn5nc(-c6ccc7oc(N)nc7c6)c6c(N)ncnc65)ccc4C3)[C@H](OC)C2)C[C@@H](O)[C@H](C)/C=C(\C)[C@@H](O)[C@@H](OC)C(=O)[C@H](C)C[C@H](C)/C=C/C=C/C=C/1C [Example 72] | – | ≤ 3.16
8 | CO[C@H]1C[C@@H]2CC[C@@H](C)[C@@](O)(O2)C(=O)C(=O)N2CCCC[C@H]2C(=O)O[C@H]([C@H](C)C[C@@H]2CC[C@@H](OC(=O)NCCOCCOCCN3CCN(CCOCCOCCOCCOCCC(=O)N4CCc5cc(Cn6nc(-c7ccc8oc(N)nc8c7)c7c(N)ncnc76)ccc5C4)CC3)[C@H](OC)C2)C[C@@H](O)[C@H](C)/C=C(\C)[C@@H](O)[C@@H](OC)C(=O)[C@H](C)C[C@H](C)/C=C/C=C/C=C/1C [Example 135] | – | > 1000
